Measured values as given in US8071625B2, “Certain chemical entities, compositions, and methods” (Cytokinetics, Inc., priority 2006, dated 2011).

Molecular target: T1, crosslinked smooth muscle actomyosin (chicken gizzard smooth muscle myosin subfragment-1 crosslinked to cardiac or skeletal actin) (Gallus gallus, UniProt P10587)
T1 construct: chicken gizzard smooth muscle myosin subfragment-1; from tissue; host or cells: chicken gizzard
Assay: Lead optimization pyruvate kinase/horseradish peroxidase/pyruvate oxidase-coupled ATPase assay (compound dose response)
Type: biochemical
Settings: read-out: IC50 Arithmetic Mean
Experimental: Screening assays were performed using a pyruvate kinase and lactate dehydrogenase-coupled ATPase assay containing the following reagents: Potassium PIPES (50 mM), MgCl2 (3 mM), KCl (100 mM), ATP (0.15 mM), DTT (1 mM), BSA (0.1 mg/ml), NADH (0.5 mM), PEP (1.5 mM), pyruvate kinase (4 U/ml), lactate dehydrogenase (8 U/ml), and antifoam (50 ppm) (concentrations expressed are final assay concentrations). The pH was adjusted to 6.80 at 22° C. by addition of potassium hydroxide. Lead optimization assays were performed with a more sensitive pyruvate kinase/horseradish peroxidase/pyruvate oxidase-coupled ATPase assay containing the following reagents: Potassium PIPES (12 mM), MgCl2 (2 mM), KCl (100 mM), ATP (0.15 mM), BSA (0.05 mg/ml), potassium phosphate (2 mM), amplex red (0.1 mM), PEP (0.1 mM), pyruvate kinase (4 U/ml), horseradish peroxidase (0.5 U/ml), pyruvate oxidase (0.5 U/ml), and antifoam (50 ppm) (concentrations expressed are final assay concentrations). The pH was adjusted to 7.00 at 22° C. by addition of potassium hydroxide.
The protein components specific to this assay are chicken gizzard smooth muscle myosin subfragment-1 that has been chemically crosslinked to either cardiac or skeletal actin using an excess of 1-Ethyl-3-[3-dimethylaminopropyl]carbodiimide hydrochloride and N-hydroxysuccinimide. The exact concentration of the crosslinked smooth muscle myosin in the assay is determined empirically, by titration to achieve a desired rate of ATP hydrolysis. The concentration varies between protein preparations due to variations in the fraction of active molecules in each preparation.
Compound dose response assays are performed by first preparing a dilution series of test compound, each with an assay mixture containing potassium PIPES, MgCl2, KCl, ATP, BSA, potassium phosphate, amplex red, PEP, crosslinked smooth muscle actomyosin (subfragment-1), antifoam, and water. The assay is started by adding an equal volume of solution containing potassium Pipes, MgCl2, KCl, BSA, potassium phosphate, pyruvate kinase, horseradish peroxidase, pyruvate oxidase, antifoam, and water. ATP hydrolysis is monitored by measuring the fluorescence of amplex red (excitation at 480 nm, emission at 615 nm). The resulting dose response curve is fit by the 4 parameter equation y=Bottom+((Top-Bottom)/(1+((IC50/X)^Hill))). The IC50 is defined as the concentration at which ATPase activity is midway between the top and bottom of the dose response curve.

Row | Structure (SMILES) | IC50 [nM]
1 | CCc1ccc(NC(=O)OCC2(CC(=O)NCc3ccccc3Cl)CCN(C(=O)CN)CC2)cc1 [2-(1-(2-aminoacetyl)-4-{[N-(4-ethylphenyl)carbamoyloxy]methyl}(4-piperidyl))-N-[(2-chlorophenyl)methyl]acetamide] | 3740
2 | CCc1ccc(NC(=O)OCCN(CCCNC(=O)CNC(=O)OC(C)(C)C)C(=O)NCc2ccccc2Cl)cc1 [2-[(tert-butoxy)carbonylamino]-N-[3-({[(2-chlorophenyl)methyl]amino}-N-{2-[N-(4-ethylphenyl)carbamoyloxy]ethyl}carbonylamino)propyl]acetamide] | 4090
3 | CCc1ccc(NC(=O)OCCN(CCN(C)C(=O)CN)C(=O)NCc2ccccc2Cl)cc1 [2-amino-N-[2-({[(2-chlorophenyl)methyl]amino}-N-{2-[N-(4-ethylphenyl)carbamoyloxy]ethyl}carbonylamino)ethyl]-N-methylacetamide] | 5860
4 | CCc1ccc(NC(=O)OCCN(CCCNC(=O)CN)C(=O)NCc2ccccc2Cl)cc1 [2-amino-N-[3-({[(2-chlorophenyl)methyl]amino}-N-{2-[N-(4-ethylphenyl)carbamoyloxy]ethyl}carbonylamino)propyl]acetamide] | 188
5 | CCc1ccc(NC(=O)OCCN(CCCCNC(=O)CN)C(=O)NCc2ccccc2Cl)cc1 [2-amino-N-[4-({[(2-chlorophenyl)methyl]amino}-N-{2-[N-(4-ethylphenyl)carbamoyloxy]ethyl}carbonylamino)butyl]acetamide] | 223
6 | CN(CCN(CCOC(=O)Nc1ccc(C(F)(F)F)cc1)C(=O)NCc1ccccc1Cl)C(=O)CN [2-amino-N-{2-[{[(2-chlorophenyl)methyl]amino}-N-(2-{N-[4-(trifluoromethyl)phenyl]carbamoyloxy}ethyl)carbonylamino]ethyl}-N-methylacetamide] | 15000
7 | CCc1ccc(NC(=O)OCC2(C(=O)NCc3ccccc3Cl)CCN(C(=O)OCCN)CC2)cc1 [2-aminoethyl 4-{N-[(2-chlorophenyl)methyl]carbamoyl}-4-{[N-(4-ethylphenyl)carbamoyloxy]methyl}piperidinecarboxylate] | 336
8 | CCc1ccc(NC(=O)OCC(C)(NC(=O)CNC(=O)OC(C)(C)C)C(=O)NCc2ccccc2Cl)cc1 (stereo not drawn) [2-{2-[(tert-butoxy)carbonylamino]acetylamino}-N-[(2-chlorophenyl)methyl]-3-[N-(4-ethylphenyl)carbamoyloxy]-2-methylpropanamide] | 19400
9 | CCc1ccc(NC(=O)CCC2(C(=O)NCc3ccccc3C)CCN(C(=O)CN)CC2)cc1 [3-(1-(2-aminoacetyl)-4-{N-[(2-methylphenyl)methyl]carbamoyl}(4-piperidyl))-N-(4-ethylphenyl)propanamide] | 15300
10 | CCc1ccc(NC(=O)OCCN(C)C(=O)CCc2ccccc2Cl)cc1 [3-(2-chlorophenyl)-N-{2-[N-(4-ethylphenyl)carbamoyloxy]ethyl}-N-methylpropanamide] | 875
11 | CCc1ccc(NC(=O)OCC2(C(=O)NCc3ccccc3Cl)CCN(C(=O)C(N)CC(=O)O)CC2)cc1 (stereo not drawn) [3-amino-4-(4-{N-[(2-chlorophenyl)methyl]carbamoyl}-4-{[N-(4-ethylphenyl)carbamoyloxy]methyl}piperidyl)-4-oxobutanoic acid] | 1530
12 | CCc1ccc(NC(=O)OCC(C)(CCNC(=O)CNC(=O)OC(C)(C)C)C(=O)NCc2ccccc2Cl)cc1 (stereo not drawn) [4-{2-[(tert-butoxy)carbonylamino]acetylamino}-N-[(2-chlorophenyl)methyl]-2-{[N-(4-ethylphenyl)carbamoyloxy]methyl}-2-methylbutanamide] | 1300
13 | NC(=O)c1ccc(NC(=O)OCC2(C(=O)NCc3ccccc3Cl)CCOCC2)cc1 [4-{[(4-{N-[(2-chlorophenyl)methyl]carbamoyl}-2H-3,4,5,6-tetrahydropyran-4-yl)methoxy]carbonylamino}benzamide] | 16100
14 | CCc1ccc(NC(=O)OCC2(C(=O)NCc3ccccc3Cl)CCN(C(=O)C(N)CN)CC2)cc1 (stereo not drawn) [(1-(2,3-diaminopropanoyl)-4-{[N-(4-ethylphenyl)carbamoyloxy]methyl}(4-piperidyl))-N-[(2-chlorophenyl)methyl]carboxamide] | 1020
15 | CCc1ccc(NC(=O)OCC2(C(=O)NCc3ccccc3Cl)CCN(C(=O)C(O)CO)CC2)cc1 (stereo not drawn) [(1-(2,3-dihydroxypropanoyl)-4-{[N-(4-ethylphenyl)carbamoyloxy]methyl}(4-piperidyl))-N-[(2-chlorophenyl)methyl]carboxamide] | 123
16 | CCc1ccc(NC(=O)OCC2(C(=O)NCc3ccccc3Cl)CCN(C(=O)C(N)CCN)CC2)cc1 (stereo not drawn) [(1-(2,4-diaminobutanoyl)-4-{[N-(4-ethylphenyl)carbamoyloxy]methyl}(4-piperidyl))-N-[(2-chlorophenyl)methyl]carboxamide] | 585
17 | CCc1ccc(NC(=O)OCC2(C(=O)NCc3ccccc3Cl)CCN(C(=O)C(N)CCCN)CC2)cc1 (stereo not drawn) [(1-(2,5-diaminopentanoyl)-4-{[N-(4-ethylphenyl)carbamoyloxy]methyl}(4-piperidyl))-N-[(2-chlorophenyl)methyl]carboxamide] | 1490
18 | CCc1ccc(NC(=O)OCC2(C(=O)NCc3ccccc3Cl)CCN(C(=O)C(C)(C)N)CC2)cc1 [(1-(2-amino-2-methylpropanoyl)-4-{[N-(4-ethylphenyl)carbamoyloxy]methyl}(4-piperidyl))-N-[(2-chlorophenyl)methyl]carboxamide] | 670
19 | CCc1ccc(NC(=O)OCC2(C(=O)NCc3ccccc3Cl)CCN(C(=O)C(N)CC#N)CC2)cc1 (stereo not drawn) [(1-(2-amino-3-cyanopropanoyl)-4-{[N-(4-ethylphenyl)carbamoyloxy]methyl}(4-piperidyl))-N-[(2-chlorophenyl)methyl]carboxamide] | 797

Continued, values first:

Row | IC50 [nM] | Structure (SMILES)
20 | 3990 | CCc1ccc(NC(=O)OCC(C)(NC(=O)CN)C(=O)NCc2ccccc2Cl)cc1 (stereo not drawn) [2-(2-aminoacetylamino)-N-[(2-chlorophenyl)methyl]-3-[N-(4-ethylphenyl)carbamoyloxy]-2-methylpropanamide]
21 | 4370 | CCc1ccc(NC(=O)OCCC(NC(=O)CN)C(=O)NCc2ccccc2Cl)cc1 (stereo not drawn) [2-(2-aminoacetylamino)-N-[(2-chlorophenyl)methyl]-4-[N-(4-ethylphenyl)carbamoyloxy]butanamide]
22 | 11200 | CCc1ccc(NC(=O)OCC(C)(NC(=O)[C@@H](N)CO)C(=O)NCc2ccccc2Cl)cc1 (stereo partly drawn) [2-((2S)-2-amino-3-hydroxypropanoylamino)-N-[(2-chlorophenyl)methyl]-3-[N-(4-ethylphenyl)carbamoyloxy]-2-methylpropanamide]
23 | 1670 | CCc1ccc(NC(=O)OC[C@H](C)N(CC(=O)O)C(=O)NCc2ccccc2Cl)cc1 [2-(N-{(1S)-2-[N-(4-ethylphenyl)carbamoyloxy]-isopropyl}{[(2-chlorophenyl)methyl]amino}carbonylamino)acetic acid]
24 | 3140 | CCc1ccc(NC(=O)OCC(C)(NC(C)=O)C(=O)NCc2ccccc2Cl)cc1 (stereo not drawn) [2-(acetylamino)-N-[(2-chlorophenyl)methyl]-3-[N-(4-ethylphenyl)carbamoyloxy]-2-methylpropanamide]
25 | 13700 | CCc1ccc(NC(=O)OCC(NC(C)=O)C(=O)NCc2ccccc2Cl)cc1 (stereo not drawn) [2-(acetylamino)-N-[(2-chlorophenyl)methyl]-3-[N-(4-ethylphenyl)carbamoyloxy]propanamide]
26 | 896 | CCc1ccc(NC(=O)OCCN(CCNC(=O)CN)C(=O)NCc2ccccc2Cl)cc1 [2-amino-N-[2-({[(2-chlorophenyl)methyl]amino}-N-{2-[N-(4-ethylphenyl)carbamoyloxy]ethyl}carbonylamino)ethyl]acetamide]
27 | 6810 | CCc1ccc(NC(=O)OCCC(N)C(=O)NCc2ccccc2Cl)cc1 (stereo not drawn) [2-amino-N-[(2-chlorophenyl)methyl]-4-[N-(4-ethylphenyl)carbamoyloxy]butanamide]
28 | 283 | CCc1ccc(NC(=O)OCC(C)(CCNC(=O)CN)C(=O)NCc2ccccc2Cl)cc1 (stereo not drawn) [4-(2-aminoacetylamino)-N-[(2-chlorophenyl)methyl]-2-{[N-(4-ethylphenyl)carbamoyloxy]methyl}-2-methylbutanamide]
29 | 742 | CCc1ccc(NC(=O)OCC(C)(CCNC(C)=O)C(=O)NCc2ccccc2Cl)cc1 (stereo not drawn) [4-(acetylamino)-N-[(2-chlorophenyl)methyl]-2-{[N-(4-ethylphenyl)carbamoyloxy]methyl}-2-methylbutanamide]
30 | 1740 | CCc1ccc(NC(=O)OCC(C)(CCN)C(=O)NCc2ccccc2Cl)cc1 (stereo not drawn) [4-amino-N-[(2-chlorophenyl)methyl]-2-{[N-(4-ethylphenyl)carbamoyloxy]methyl}-2-methylbutanamide]
